Results from patent US12077534B2, “Aza-heterobicyclic inhibitors of MAT2A and methods of use for treating cancer” (Les Laboratoires Servier SAS, priority 2018, dated 2024).

What was measured:
MAT2A homodimer = target: T1, MAT2A homodimer (Homo sapiens, UniProt P31153); assay: MAT2A biochemical assay (phosphate release, PiColorLock Gold); conditions: recombinant MAT2A homodimer, 60 min pre-incubation, 25° C.; read-out: Enzyme Inhibition
T1 construct: inferred from Ni sepharose purification and imidazole elution; made in house; host or cells: SF9 insect cells, recombinant baculovirus (Bac to Bac, pFASTBAC1)
T1 sequence (P31153 whole entry): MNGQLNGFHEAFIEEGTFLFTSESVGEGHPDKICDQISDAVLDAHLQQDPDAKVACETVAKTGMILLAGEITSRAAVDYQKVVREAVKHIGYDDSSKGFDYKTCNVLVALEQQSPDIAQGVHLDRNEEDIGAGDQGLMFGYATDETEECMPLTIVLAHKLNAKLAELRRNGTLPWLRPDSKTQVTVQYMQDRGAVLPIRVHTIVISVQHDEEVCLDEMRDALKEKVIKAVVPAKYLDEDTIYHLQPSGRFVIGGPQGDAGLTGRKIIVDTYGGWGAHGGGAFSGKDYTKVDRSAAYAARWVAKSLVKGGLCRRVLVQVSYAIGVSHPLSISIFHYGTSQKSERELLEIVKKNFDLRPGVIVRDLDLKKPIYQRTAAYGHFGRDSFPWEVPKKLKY
Method in brief: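 Baculovirus/Sf9-expressed, Ni-purified MAT2A homodimer (4 µg/mL in pH 8.0 Tris/KCl/MgCl2 buffer) preincubated 60 min at 25 °C with compound (2% DMSO final). Substrate mix of 500 µM ATP and 400 µM L-methionine added; 60 min at 25 °C; released phosphate quantified colorimetrically against a phosphate standard curve.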

[1] = test system: MAT2A activity (SAM) in HCT116 cells with deleted MTAP gene; assay: Cellular assay of target engagement (SAM) by LC-MS/MS; format: cell-based; conditions: Homo sapiens, HCT-116; HCT116 MTAP −/−, 72 hrs; read-out: Cell 72 h SAM Inhibition (MTAP −/−)
Method in brief: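 HCT116 MTAP-deleted cells treated with 10-point 3-fold DMSO serial dilutions of compound for 72 hrs at 37° C. Cells lysed in cold 80% methanol/acetic acid extraction buffer with d3-SAM internal standard; SAM quantified by LC-MS/MS (MRM m/z 399.2→250.1).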

HCT116 MTAP+/+ = assay: Inhibition of cellular proliferation (Cell Titer Glo), HCT116 MTAP+/+; format: cell-based; conditions: Homo sapiens, HCT-116, 96 h, 4 days, read-out: 4 Day Relative Growth Inhibition (MTAP +/+)
Method in brief: (§1)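 Isogenic HCT116 MTAP+/+ and MTAP−/− cells treated 24 h after plating with 10-point 3-fold dilutions, then grown 4 days at 37 °C/5% CO2. ATP content read by Cell Titer Glo luminescence, blank-subtracted and normalized to 0.2% DMSO control, plotted as percent proliferation change versus log molar concentration.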

HCT116 MTAP−/− = assay: Inhibition of cellular proliferation (Cell Titer Glo), HCT116 MTAP-/-; format: cell-based; conditions: Homo sapiens, HCT-116, 96 h, 4 days, read-out: 4 Day Relative Growth Inhibition (MTAP −/−)
Method in brief: as §1

IC50 (MAT2A homodimer)	IC50 [1]	IC50 (HCT116 MTAP+/+)	IC50 (HCT116 MTAP−/−)	Structure (SMILES)
< 0.1 µM	< 0.1 µM	≥ 1 µM	< 0.1 µM	Cc1ccc(-c2c(=O)n(-c3ccc4nn(C)cc4c3)nc3ccc(NCC(F)(F)F)nc23)cn1 [Example 301, 2-(2-methyl-2H-indazol-5-yl)-4-(6-methylpyridin-3-yl)-6-((2,2,2-trifluoroethyl)amino)pyrido[3,2-c]pyridazin-3(2H)-one]
< 0.1 µM	< 0.1 µM	≥ 1 µM	< 0.1 µM	CCNc1ccc2nn(-c3ccc4nn(C)cc4c3)c(=O)c(-c3ccc(C)nc3)c2n1 [Example 305]
< 0.1 µM	< 0.1 µM	≥ 1 µM	< 0.1 µM	CCNc1ccc2nn(-c3ccc4nn(C)cc4c3)c(=O)c(-c3ccc(OC)nc3)c2n1 [Example 307]
< 0.1 µM	< 0.1 µM	≥ 1 µM	< 0.1 µM	CCNc1ccc2nn(-c3ccc4nn(C)cc4c3)c(=O)c(-c3ccc(C4CC4)nc3)c2n1 [Example 309]
< 0.1 µM	< 0.1 µM	≥ 1 µM	< 0.1 µM	CCNc1ccc2nn(-c3ccc4nn(C)cc4c3)c(=O)c(-c3ccc(C(F)F)nc3)c2n1 [Example 310]
< 0.1 µM	< 0.1 µM	0.1 to 1 µM	< 0.1 µM	CCNc1ccc2nn(-c3ccc4nn(C)cc4c3)c(=O)c(-c3ccc(OC(F)F)nc3)c2n1 [Example 313]
< 0.1 µM	< 0.1 µM	≥ 1 µM	< 0.1 µM	CCNc1ccc2nn(-c3ccc4nn(C)cc4c3)c(=O)c(-c3ccc(C(F)(F)F)nc3)c2n1 [Example 316]
< 0.1 µM	< 0.1 µM	≥ 1 µM	< 0.1 µM	Cn1cc2cc(-n3nc4ccc(NCC(F)(F)F)nc4c(-c4ccc(C(F)F)nc4)c3=O)ccc2n1 [Example 317]
< 0.1 µM	< 0.1 µM	≥ 1 µM	< 0.1 µM	Cc1ccc(-c2c(=O)n(-c3ccc4nn(C)cc4c3)nc3ccc(NCC(F)F)nc23)cn1 [Example 318]
< 0.1 µM	< 0.1 µM	< 0.1 µM	< 0.1 µM	[2H]C([2H])([2H])C([2H])([2H])Nc1ccc2nn(-c3ccc4nn(C)cc4c3)c(=O)c(-c3ccc(C)nc3)c2n1 [Example 323]

Second part, the compound before the results:

Structure (SMILES)	IC50 (MAT2A homodimer)	IC50 [1]	IC50 (HCT116 MTAP+/+)	IC50 (HCT116 MTAP−/−)
Cc1ccc(-c2c(=O)n(-c3ccc4nn(C)cc4c3)nc3ccc(OCC4CC4)nc23)cn1 [Example 302]	< 0.1 µM	< 0.1 µM	≥ 1 µM	< 0.1 µM
Cn1cc2cc(-n3nc4ccc(OCC5CC5)nc4c(-c4ccc(C5CC5)nc4)c3=O)ccc2n1 [Example 303]	< 0.1 µM	< 0.1 µM	≥ 1 µM	< 0.1 µM
O=c1c(-c2ccc(C3CC3)cc2)c2nc(OCC(F)F)ccc2nn1-c1ccc2ncsc2c1 [Example 304]	< 0.1 µM	< 0.1 µM	0.1 to 1 µM	0.1 to 1 µM
Cn1cc2cc(-n3nc4ccc(NCC5CC5)nc4c(-c4ccc(C5CC5)nc4)c3=O)ccc2n1 [Example 315]	< 0.1 µM	< 0.1 µM	≥ 1 µM	< 0.1 µM
Cn1cc2cc(-n3nc4ccc(NCC(F)F)nc4c(-c4ccc(C(F)F)nc4)c3=O)ccc2n1 [Example 319]	< 0.1 µM	< 0.1 µM	≥ 1 µM	< 0.1 µM
[2H]C([2H])([2H])n1cc2cc(-n3nc4ccc(NC([2H])([2H])C([2H])([2H])[2H])nc4c(-c4ccc(C(F)F)nc4)c3=O)ccc2n1 [Example 321, 4-(6-(difluoromethyl)pyridin-3-yl)-6-((ethyl-d5)amino)-2-(2-(methyl-d3)-2H-indazol-5-yl)pyrido[3,2-c]pyridazin-3(2H)-one]	< 0.1 µM	< 0.1 µM	≥ 1 µM	< 0.1 µM
CCNc1ccc2nn(-c3ccc4nc(C)n(C)c4c3)c(=O)c(-c3ccc(C(F)F)nc3)c2n1 [Example 327]	< 0.1 µM	< 0.1 µM	≥ 1 µM	< 0.1 µM
Cn1cc2cc(-n3nc4ccc(OCC(F)F)nc4c(-c4ccc5[nH]cc(C#N)c5c4)c3=O)ccc2n1 [Example 331, 5-(6-(2,2-difluoroethoxy)-2-(2-methyl-2H-indazol-5-yl)-3-oxo-2,3-dihydropyrido[3,2-c]pyridazin-4-yl)-1H-indole-3-carbonitrile]	< 0.1 µM	< 0.1 µM	≥ 1 µM	< 0.1 µM
